{"source": "ChEMBL document CHEMBL5532671", "about": "“Leucosceptrane Sesterterpenoids as a New Type of Natural Immunosuppressive Agents in Treating Sepsis” (J Med Chem, 2024)", "key": {"Mus musculus [1]": {"species_on_record": "Mus musculus", "experiment": "Immunosuppressive activity in C57BL/6 female mouse T Cells isolated from spleen assessed as inhibition of anti-CD3/CD28-induced IFN-gamma secretion measured after 48 hrs by ELISA based assay relative to control", "format": "functional", "details": "T-cell"}, "T-cell [2]": {"system": "T-cell", "experiment": "Immunosuppressive activity in C57BL/6 female mouse T-cells isolated from spleen assessed as inhibition of LPS-induced IFN-gamma secretion at 20 uM treated for 48 hrs by ELISA based assay relative to control", "format": "functional", "details": "C57BL/6, T-cell"}, "T-cell [3]": {"system": "T-cell", "experiment": "Immunosuppressive activity in C57BL/6 female mouse T-cells isolated from spleen assessed as inhibition of LPS-induced IFN-gamma secretion treated for 48 hrs by ELISA based assay", "format": "functional", "details": "C57BL/6, T-cell"}, "T-cell [4]": {"system": "T-cell", "experiment": "Inhibition of proliferation of C57BL/6 female mouse T-cells isolated from spleen at 20 uM relative to control", "format": "functional", "details": "C57BL/6, T-cell"}, "T-cell [5]": {"system": "T-cell", "experiment": "Inhibition of proliferation of C57BL/6 female mouse T-cells isolated from spleen", "format": "functional, cell-based", "details": "C57BL/6, T-cell"}, "T-cell [6]": {"system": "T-cell", "experiment": "Blocked of cell cycle progression in anti-CD3/CD28 stimulated C57BL/6 female mouse T-cells isolated from spleen assessed as increase in cells at G0/G1 phase at 5 to 20 uM measured after 48 hrs by flow cytometry assay", "format": "functional, cell-based", "details": "dose 5-20 µM"}, "T-cell [7]": {"system": "T-cell", "experiment": "Blocked of cell cycle progression in anti-CD3/CD28 stimulated C57BL/6 female mouse T-cells isolated from spleen assessed as decrease in cells at S phase measured after 48 hrs by flow cytometry assay", "format": "functional, cell-based", "details": "dose 5-20 µM"}, "T-cell [8]": {"system": "T-cell", "experiment": "Blocked of cell cycle progression in anti-CD3/CD28 stimulated C57BL/6 female mouse T-cells isolated from spleen assessed as increase in cells at G2/M phase measured after 48 hrs by flow cytometry assay", "format": "functional, cell-based", "details": "dose 5-20 µM"}, "RAW264.7 [9]": {"system": "RAW264.7", "experiment": "Inhibition of cytokine secretion in mouse RAW264.7 cells assessed as suppression of LPS-induced IL-6 secretion measured after 48 hrs by ELISA based assay", "format": "functional, cell-based", "details": "dose 2.5-40 µM"}, "RAW264.7 [10]": {"system": "RAW264.7", "experiment": "Inhibition of cytokine secretion in mouse RAW264.7 cells assessed as suppression of LPS-induced TNF-alpha secretion measured after 48 hrs by ELISA based assay", "format": "functional, cell-based", "details": "dose 2.5-40 µM"}, "RAW264.7 [11]": {"system": "RAW264.7", "experiment": "Antiproliferative activity against mouse RAW264.7 cells at 2.5 to 40 uM", "format": "toxicity, cell-based", "details": "raw264.7, 40 µM, dose 2.5-40 µM"}, "RAW264.7 [12]": {"system": "RAW264.7", "experiment": "Immunosuppressive activity in mouse RAW264.7 cells assessed as reduction in expression of ERK phosphorylation at 10 to 40 uM by Western blot analysis", "format": "functional, cell-based", "details": "dose 10-40 µM"}, "RAW264.7 [13]": {"system": "RAW264.7", "experiment": "Immunosuppressive activity in mouse RAW264.7 cells assessed as reduction in expression of P70S6K phosphorylation at 10 to 40 uM by Western blot analysis", "format": "functional, cell-based", "details": "dose 10-40 µM"}, "RAW264.7 [14]": {"system": "RAW264.7", "experiment": "Immunosuppressive activity in mouse RAW264.7 cells assessed as reduction in expression of JNK phosphorylation at 10 to 40 uM by Western blot analysis", "format": "functional, cell-based", "details": "dose 10-40 µM"}, "Mus musculus [15]": {"system": "Mus musculus", "experiment": "Antisepsis against LPS-induced sepsis mouse multiorgan damage model model assessed as reduction in multiorgan damage at 25 to 50 mg/kg, IG measured after 24 hrs by H and E staining assay", "format": "functional, organism-based", "details": "dose 25-50 mg/kg"}, "Mus musculus [16]": {"system": "Mus musculus", "experiment": "Reduction in TNF-alpha level in LPS-induced sepsis mouse model peripheral blood at 25 mg/kg, IG measured after 12 hrs by ELISA based assay", "format": "functional, organism-based"}, "Mus musculus [17]": {"system": "Mus musculus", "experiment": "Reduction in IL-6 level in LPS-induced sepsis mouse model peripheral blood at 50 mg/kg, IG measured after 12 hrs by ELISA based assay", "format": "functional, organism-based"}, "Mus musculus [18]": {"species_on_record": "Mus musculus", "experiment": "Antisepsis against LPS-induced sepsis mouse model assessed as increase in survival rate of mouse treated IG measured upto 24 hrs", "format": "functional, organism-based"}, "RAW264.7 [19]": {"system": "RAW264.7", "experiment": "Inhibition of cytokine secretion in mouse RAW264.7 cells assessed as suppression of LPS-induced IL-6 secretion at 40 uM measured after 48 hrs by ELISA based assay", "format": "functional, cell-based"}, "RAW264.7 [20]": {"system": "RAW264.7", "experiment": "Inhibition of cytokine secretion in mouse RAW264.7 cells assessed as suppression of LPS-induced TNF-alpha at 40 uM secretion measured after 48 hrs by ELISA based assay", "format": "functional, cell-based"}, "T-cell [21]": {"system": "T-cell", "experiment": "Immunosuppressive activity in C57BL/6 female mouse T-cells isolated from spleen assessed as inhibition of LPS-induced IFN-gamma secretion at 1 uM treated for 48 hrs by ELISA based assay relative to control", "format": "functional", "details": "C57BL/6, T-cell"}, "T-cell [22]": {"system": "T-cell", "experiment": "Inhibition of proliferation of C57BL/6 female mouse T-cells isolated from spleen at 1 uM relative to control", "format": "functional", "details": "C57BL/6, T-cell"}}, "note": "pIC50: −log10 of the molar value. Activity calls are given as the source filed them. The rule behind the calls is not given here."}
{"smiles": "CC(C)=C[C@H]1O[C@@](C)(CCc2occc2C)C2=C1[C@@H](C)[C@@H]1CC[C@H](C)[C@]1(O)C2=O", "values": [{"measurement": "Activity", "setting": "Mus musculus [1]", "value": "Active"}, {"measurement": "inhibition at 20 µM", "setting": "T-cell [2]", "value": 73.7, "unit": "%"}, {"measurement": "pIC50", "setting": "T-cell [3]", "value": 5.31}, {"measurement": "inhibition at 20 µM", "setting": "T-cell [4]", "value": 39.8, "unit": "%"}, {"measurement": "pIC50", "setting": "T-cell [5]", "value": 4.49}, {"measurement": "Activity", "setting": "T-cell [6]", "value": "Active"}, {"measurement": "Activity", "setting": "T-cell [7]", "value": "Dose-Dependent Effect"}, {"measurement": "Activity", "setting": "T-cell [8]", "value": "Dose-Dependent Effect"}, {"measurement": "inhibition", "setting": "RAW264.7 [9]", "value": "Dose-Dependent Effect"}, {"measurement": "inhibition", "setting": "RAW264.7 [10]", "value": "Dose-Dependent Effect"}, {"measurement": "Activity", "setting": "RAW264.7 [11]", "value": "Non-Toxic"}, {"measurement": "Activity", "setting": "RAW264.7 [12]", "value": "Active"}, {"measurement": "Activity", "setting": "RAW264.7 [13]", "value": "Active"}, {"measurement": "Activity", "setting": "RAW264.7 [14]", "value": "Active"}]}
{"smiles": "CC(C)=CC(=O)[C@@]1(O)[C@@H](C)[C@@H]2CC[C@H](C)[C@H]2C(=O)[C@]1(O)[C@H](C)CC[C@@H]1OC(=O)C=C1C", "values": [{"measurement": "Activity", "setting": "Mus musculus [1]", "value": "Active"}, {"measurement": "Activity", "setting": "Mus musculus [15]", "value": "Active"}, {"measurement": "inhibition at 20 µM", "setting": "T-cell [2]", "value": 54.3, "unit": "%"}, {"measurement": "pIC50", "setting": "T-cell [3]", "value": 5.00}, {"measurement": "Activity", "setting": "Mus musculus [16]", "value": "Active"}, {"measurement": "inhibition at 20 µM", "setting": "T-cell [4]", "value": 14.7, "unit": "%"}, {"measurement": "Activity", "setting": "Mus musculus [17]", "value": "Active"}, {"measurement": "Activity", "setting": "Mus musculus [18]", "value": "Dose-Dependent Effect"}, {"measurement": "inhibition", "setting": "RAW264.7 [19]", "value": "Active"}, {"measurement": "inhibition", "setting": "RAW264.7 [20]", "value": "Active"}, {"measurement": "Activity", "setting": "RAW264.7 [11]", "value": "Non-Toxic"}, {"measurement": "Activity", "setting": "RAW264.7 [12]", "value": "Active"}, {"measurement": "Activity", "setting": "RAW264.7 [13]", "value": "Active"}]}
{"smiles": "C/C=C/C[C@@H](C)[C@@H](O)[C@H]1C(=O)N[C@@H](CC)C(=O)N(C)CC(=O)N(C)[C@@H](CC(C)C)C(=O)N[C@@H](C(C)C)C(=O)N(C)[C@@H](CC(C)C)C(=O)N[C@@H](C)C(=O)N[C@H](C)C(=O)N(C)[C@@H](CC(C)C)C(=O)N(C)[C@@H](CC(C)C)C(=O)N(C)[C@@H](C(C)C)C(=O)N1C", "note": "[CYCLOSPORINE]", "values": [{"measurement": "inhibition at 1 µM", "setting": "T-cell [21]", "value": 99.2, "unit": "%"}, {"measurement": "inhibition at 1 µM", "setting": "T-cell [22]", "value": 36.7, "unit": "%"}]}
